The source of these data is paper PMC8448693, “Effects of co-formulants on the absorption and secretion of active substances in plant protection products in vitro” (Archives of Toxicology, 2021).

One data set addresses recombinant human Pgp (Homo sapiens, UniProt P08183). The experiment in a line: Pgp ATPase assay (Pgp-Glo assay system). How it is done: This study focused on potential effects on Pgp transporters.
Pgp ATPase activity modulation was determined using the Pgp-Glo assay system (Promega, Madison, WI, USA) following the manufacturer's user protocol. Briefly, 25 µg of recombinant human Pgp membrane in Pgp-Glo assay buffer was incubated with different concentrations of each active substance or co-formulant in combination with 200 µM verapamil at 37 °C for 5 min. […] 5 mM MgATP was added to each well and 96-well plates were incubated at 37 °C for 40 min to initiate the reaction. Luminescence of the remaining, unmetabolised ATP was initiated by adding 50 µl of 25 mM ATP detection reagent. After briefly shaking on a plate shaker, 96-well plates were incubated at room temperature for 20 min. The luciferase generated luminescence signal was measured on an Infinite M200 PRO plate reader (Tecan, Maennedorf, Swiss). All measurements were corrected by subtraction of Na3VO4-treated signals (non Pgp ATPase activity) and represented as changes in luminescence signals (ΔRLU). […] Changes in luminescence (ΔRLU) caused by the co-formulants and abamectin incubated with verapamil were compared to ΔRLU caused by verapamil. ΔRLU values of the active ingredients (without verapamil) were compared to ΔRLU values of untreated samples (basal ΔRLU). Each condition was measured in four replicates (n = 4).

Data set [1] deals with Caco-2 cell membrane fluidity. The experiment in a line: DPH fluorescence anisotropy (membrane fluidity) in Caco-2 cells. It is filed as cell-based. The note with it: Caco-2, vs untreated control. How it is done: Furthermore, the active ingredients and the products were investigated at sub-cytotoxic concentrations to rule out any impact of the active ingredients. Briefly, Caco-2 cells were cultivated in six-well plates for 21 days and detached on day 21 using 1 mL Accutase Cell Detachment Solution (ACC-1B, Capricorn Scientific GmbH, Ebsdorfergrund, Germany) per well. After incubation for 20-30 min at room temperature, detached cells were separated by centrifugation. […] Fluorescence anisotropy measurements were performed at 37 °C using a dual monochromator fluorescence spectrometer (model LS 55, PerkinElmer, Rodgau, Germany) fitted with polarizing filters and a stirred cell. Samples were excited with 355 nm vertical polarised light and emission was measured at 430 nm in vertical and horizontal direction. Since fluorescence anisotropy is inversely related to membrane fluidity, decreased DPH fluorescence anisotropy implies an increased membrane fluidity. Three independent experiments were performed (n = 3). The fluorescence anisotropy (r) is defined by following equation: […]: fluorescence intensity measured in direction parallel to the polarised exciting light.IVH: fluorescence intensity measured in direction perpendicular to the polarised exciting light.G: IVH/IHH; correction factor for the instrument.
A general note: Fluorescence polarisation rises when a labelled molecule tumbles more slowly, as on binding a larger partner.

Another data set concerns Caco-2 cells. Nature of the data set: WST-1 cytotoxicity assay in Caco-2 cells, 24 h exposure. It is filed as cell-based. The note with it: WST-1, Caco-2, 24 h; tested range ≤ 960 mg/L. How it is done:
Caco-2 cells (ECACC: 86010202) were purchased from the European Collection of Authenticated Cell Cultures (Salisbury, UK). […] The cells were cultivated at 37 °C, 5% CO2 and […] atmosphere in a cell culture incubator. They were passaged when reaching 80–90% confluence every 2 to 3 days. Passaging was performed at maximum ten times and by aspirating the medium, washing with phosphate-buffered saline (PBS) and incubating with trypsin–EDTA (0.05%) in Dulbecco’s phosphate-buffered saline (Capricorn Scientific GmbH, Ebsdorfergrund, Germany) at 37 °C for 3–5 min.
Cytotoxicity was first analysed by water soluble tetrazolium assay (WST-1; Roche, Berlin, Germany), followed by neutral red uptake (NRU) assay. Caco-2 cells were seeded in 96-well plates at a density of 5000 cells per well and differentiated for three weeks. The cells were incubated with both active substances and all of the above-mentioned co-formulants individually, with a combination of the active substances and the respective surfactants in a ratio in accordance with the products, as well as with the respective products, containing all co-formulants, for 24 h. Eight different concentrations were investigated in culture medium with a final concentration of 0.4% DMSO. Triton X-100 (0.1%) served as a positive control. After 24 h incubation a WST-1 assay was performed according to the protocol provided by the supplier.
A general note: Tetrazolium assays rely on reduction of a dye to a coloured formazan, in cell work by metabolically active cells.

recombinant human Pgp, sequence (P08183 whole entry): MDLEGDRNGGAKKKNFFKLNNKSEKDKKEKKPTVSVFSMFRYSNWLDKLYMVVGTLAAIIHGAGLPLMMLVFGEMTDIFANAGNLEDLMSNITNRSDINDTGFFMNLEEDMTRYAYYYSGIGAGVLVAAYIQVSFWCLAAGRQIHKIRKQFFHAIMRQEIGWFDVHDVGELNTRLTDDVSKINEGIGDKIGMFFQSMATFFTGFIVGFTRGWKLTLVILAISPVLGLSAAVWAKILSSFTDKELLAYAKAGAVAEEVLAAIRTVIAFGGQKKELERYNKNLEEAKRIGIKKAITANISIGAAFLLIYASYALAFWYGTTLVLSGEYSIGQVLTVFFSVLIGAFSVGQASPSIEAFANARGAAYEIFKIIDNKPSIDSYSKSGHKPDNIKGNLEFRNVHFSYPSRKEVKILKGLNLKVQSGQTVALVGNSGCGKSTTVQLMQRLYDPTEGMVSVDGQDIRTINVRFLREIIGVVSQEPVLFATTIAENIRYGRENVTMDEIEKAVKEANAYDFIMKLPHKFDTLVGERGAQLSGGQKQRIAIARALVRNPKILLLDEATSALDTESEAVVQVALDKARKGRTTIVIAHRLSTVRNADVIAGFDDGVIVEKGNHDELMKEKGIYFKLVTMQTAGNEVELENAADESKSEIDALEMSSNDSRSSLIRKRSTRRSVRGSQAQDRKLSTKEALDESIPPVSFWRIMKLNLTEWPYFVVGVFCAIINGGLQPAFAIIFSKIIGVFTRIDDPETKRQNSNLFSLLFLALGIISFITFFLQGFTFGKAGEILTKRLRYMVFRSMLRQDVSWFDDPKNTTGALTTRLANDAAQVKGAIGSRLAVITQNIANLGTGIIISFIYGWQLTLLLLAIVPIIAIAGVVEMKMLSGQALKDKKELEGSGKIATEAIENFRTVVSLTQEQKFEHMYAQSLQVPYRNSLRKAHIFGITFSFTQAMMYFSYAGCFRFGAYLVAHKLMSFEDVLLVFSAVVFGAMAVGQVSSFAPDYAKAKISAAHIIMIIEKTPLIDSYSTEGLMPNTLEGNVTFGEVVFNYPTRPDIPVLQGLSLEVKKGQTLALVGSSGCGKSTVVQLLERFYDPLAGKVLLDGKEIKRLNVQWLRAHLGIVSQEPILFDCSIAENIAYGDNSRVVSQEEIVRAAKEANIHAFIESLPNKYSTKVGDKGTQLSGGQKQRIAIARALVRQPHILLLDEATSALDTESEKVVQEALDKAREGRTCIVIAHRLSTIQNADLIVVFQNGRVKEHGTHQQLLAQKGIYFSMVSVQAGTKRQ

For the molecule abamectin, the “stimulation of Pgp ATPase activity compared to the untreated control” value on recombinant human Pgp (1.25 mg/L (lowest concentration), without verapamil) is “approximately 250%”. Also, the “maximum decreased ΔRLU value compared to the verapamil control” value on recombinant human Pgp (verapamil-stimulated (200 µM) Pgp ATPase activity, 2.5–64 mg/L, concentration-dependent inhibition) amounted to 30%. Further, the “impact on the fluorescence anisotropy” value in data set [1] (10 mg/L) is on record as “did not show a statistically significant impact”.
As for `CCCCCCC(C)OC(=O)COc1nc(F)c(Cl)c(N)c1Cl` (centres unmarked) [fluroxypyr-meptyl], in the data set with Caco-2 cells, the “cytotoxic effects over the tested concentration range” value is given as “did not show significant cytotoxic effects”. The “impact on the fluorescence anisotropy” value in data set [1] (64 mg/L) is on record as “did not show a statistically significant impact”.
